# B1: Mettl8 ASAM variant: human Mettl8 variant with SAM domain deletion (aa 200-208), SEQ ID No. 18; competes with endogenous Mettl8 (protein)
# chain: MNMIWRNSISCLRLGKVPHRYQSGYHPVAPLGSRILTDPAKVFEHNMWDHMQWSKEEEAAARKKVKENSAVRVLLEEQVKYEREASKYWDTFYKIHKNKFFKDRNWLLREFPEILPVDQKPEEKARESSWDHVKTSATNRFSRMHCPTVPDEKNHYEKSSGSSEGQSKTESDFSNLDSEKHKKGPMETGLFPGSNATFRNSVFPILNTLENSPESFLYCCDFASGAVELVKSHSSYRATQCFAFVHDVCDDGLPYPFPDGILDVILLVFVLSSIHPDRMQGVVNRLSKLLKPGGMLLFRDYGRYDKTQLRFKKGHCLSENFYVRGDGTRAYFFTKGEVHSMFCKASLDEKQNLVDRRLQVNRKKQVKMHRVWIQGKFQKPLHQTQNSSNMVSTLLSQD
# What was measured:
# [1] = system: pS/TQ motif on Mettl8; assay: Flag IP and pS/TQ immunoblot of Flag-Mettl8 in HCT116 stable cells; type: cell-based, human
# Source text: Since both ATM and p53 are tumor suppressors in response to DNA damage, inventors further explored the function of Mettl8 in DNA damage. […] Equal amount of lysates were subject to Flag immunoprecipitation (“IP”) with M-2 beads and washed extensively before being resolved on SDS-PAGE and followed by immunoblotting with an phosphorylation-specific antibody against pS/TQ motif (Cell signaling) and a Flag antibodu. The lysates were immunoblotted by anti-Flag, Actin, ATM pS1981, Chk2 pT68 and p53 p515 antibodies.
# In this experiment, equal amount of lysate was immunopurified with M2 beads and probed for pS/TQ antibody, the lysate was checked for antibodies indicated in FIG. 7C.
# Equal amounts of lysate were immunopurified with M2 beads and probed for pS/TQ antibody, the lysate was checked for antibodies indicated.
# [2] = system: ATM, KAP1, Chk2, p53; assay: ATM inhibitor pre-treatment of Mettl8 mutant or knockout cells before irradiation (immunoblot); type: cell-based; settings: Mettl8 mutant or knockout cells pre-treated with ATM inhibitor before irradiation
# [3] = system: Mettl8; assay: Western blot of Mettl8 protein in E14 cells treated with STAT3 inhibitors; type: cell-based, mouse
# Method: Total RNAs were extracted from E14 cells treated with STA-21 and STATTIC for 6 hr and analyzed by real-time PCR. […] The data are shown as the mean±SD from three independent experiments (*p<0.05). The cell lysates from treated E14 cells were also analyzed by Western blot. Consistent with the mRNA expression, the protein levels of Mettl8 were reduced with presence of STA-21 and STATTIC (FIG. 5J). The value of each band was calculated from three independent replicates and indicates the relative expression level after normalizing to the loading control Actin.
# [4] = system: Mettl8 mRNA; assay: Real-time PCR of Mettl8 mRNA in ESCs / E14 cells treated with STAT3 inhibitors; type: cell-based, mouse; settings: for Mettl8 mRNA expression (real-time PCR): E14 cells treated for 6 hr; for Mettl8 mRNA (real-time PCR): ESCs treated with 10 μM STAT3 inhibitor for 1 hr
# Method: To investigated how STAT3 crosstalk with other potential pathways in pluripotency of embryonic stem cells (“ESCs”), inventors tried to identify factors that were regulated by STAT3 using mouse ESCs treated with STAT3 inhibitors STA-21 and STATTIC. Real-time PCR was performed to screen for changes when embryonic stem cells (ESCs) were treated with STAT3 inhibitor 10 μM STA-21 and STATTIC for 1 hr. RNAs were extracted with TRIZOL followed by reverse transcription. Total RNAs were extracted from E14 cells treated with STA-21 and STATTIC for 6 hr and analyzed by real-time PCR. […] The data are shown as the mean±SD from three independent experiments (*p<0.05). The cell lysates from treated E14 cells were also analyzed by Western blot. Consistent with the mRNA expression, the protein levels of Mettl8 were reduced with presence of STA-21 and STATTIC (FIG. 5J). The value of each band was calculated from three independent replicates and indicates the relative expression level after normalizing to the loading control Actin.
# [5] = system: ATM; assay: Camptothecin treatment of HCT116 WT and METTL8 KO cells, ATM activation immunoblot; type: cell-based, human; settings: 10 μM camptothecin 0-24 hr; Mettl8 knockout HCT116 cells compared with WT
# Method: HCT116 WT and METTL8 KO cells were treated with 10 μM camptothecin for 0 h, 1 hr, 3 hr, 6 hr, 16 hr, and 24 hr. Equal amount of lysates were resolved on SDS-PAGE followed by immunoblotting with antibodies.
# [6] = system: Mettl8; assay: Mettl8 expression after treatment with interstrand crosslinking agents; type: cell-based
# [7] = system: HCT116 control and Mettl8 knockout cells; assay: Cisplatin sensitivity colony survival assay; type: cell-based, human; settings: Mettl8 knockout versus control HCT116 cells; cisplatin 2 h, grown a week
# Method: (§1) To further study the relationship between cisplatin and Mettl8, MTS and colony survival assays were performed. In the MTS assay, HCT116 wildtype and Mettl8 knockout cells were seed in 96 well at 1000 cell/well density and treated with different dose of cisplatin. In the colony survival assay, 500 cells per well of HCT116 control and Mettl8 knockout cells were seeded into 6-well plates in triplicate and subjected to different dosage of cisplatin treatment for 2 h.
# Cells were grown in fresh media for a week and the survival cell colonies were fixed and stained with crystal violet. Colonies with more than 50 cells were counted. The result was presented in ±SEM of percentage of colonies survived compared to untreated samples. […] This effect is dependent on p53 for cisplatin induced apoptosis (data not shown). This difference in sensitivity could be exploited in clinical context that patients with functional p53 and low Mettl8 tumor may benefit more from cisplatin treatment instead of radiotherapy.
# [8] = system: HCT116 wildtype and Mettl8 knockout cells; assay: Cisplatin sensitivity MTS assay; type: cell-based, human; settings: Mettl8 knockout versus wildtype HCT116 cells
# Method: as §1
# [9] = system: Mettl8 protein; assay: Mettl8 protein level after cisplatin treatment (SDS-PAGE, immunoblotting); type: cell-based, human; settings: 293T, HCT116 and HepG2 cells; cisplatin 0, 10, 30, 60, 100, 150 μM for 24 h
# Method: To further study modulation of Mettl8 protein, 293T, HCT116, and HepG2 cells were treated with different dosage of cisplatin (0, 10, 30, 60, 100, and 150 μM) for 24 h before cell lysates were collected and subjected to SDS-PAGE followed by immunoblotting with Mettl8 and Hsp90 antibodies.
# [10] = system: HCT116 cells; assay: Cell growth (colony formation) assay, crystal violet; type: cell-based, human; settings: HCT116, 500 cells/well, 7 days, versus scramble shRNA / empty vector
# Method: (§2) In the soft agar colony assay, HCT116 cells with Mettl8 wt or ΔSAM were seeded at 500 cells/well in 6-well plate in triplicate and after 2-week colonies grown up in soft agar was shown. Colonies with more than 50 cells were counted with Quantity One software. […] 7 days later, cells were fixed and stained with crystal violet. The images of plates were collected with ImageLab software.
# [11] = system: Mettl8; assay: STAT3 shRNA knockdown in E14 cells, Mettl8 mRNA and protein; type: cell-based, mouse; settings: Luc shRNA as control
# Method: Luc shRNA was used as control. Data in FIG. 5K are shown as the mean±SD from three independent experiments. The value of each band in FIG. 5L was calculated from three independent replicates and indicates the relative expression level after normalizing to the loading control Actin.
# [12] = system: Mettl8; assay: shRNA knockdown of Mettl8 in HCT116 (lentivirus, Western blotting); type: cell-based, human; settings: HCT116, lentiviral pLKO1 shRNA, 72 h
# Method: To study the functions of Mettl8, hairpin shRNA was ordered and cloned into pLKO1 vector by AgeI/EcoRI, with the following sequence:
# The hairpin sequences in the shRNA were underlined. […]. Supernatant was harvested after 48 hours and cleared by filtration. Then viral solution was added to fresh HCT116 culture in the presence of 6 ug/ml polybrene. After 72 h, the cells were lysed and equal amount of lysate was resolved on SDS-PAGE for knock down efficiency by Western blotting with anti-Mettl8 and actin antibodies as indicated in FIG. 2.
# [13] = 3H-SAM binding assay with GST-Mettl8 proteins on beads, scintillation counting; parameters: species or system human; settings: recombinant purified GST-Mettl8 wt and SAM mutant
# Method: To test the ability of Mettl8 to bind SAM, equal amounts of GST, GST-Mettl8 WT and mutant proteins were conjugated on Glutathione sepharose 4B beads and incubated with ^3H-SAM for 30 min at 30° C. with empty beads control. After extensive washing, the beads were transferred to scintillation tubes and measured on liquid scintillation counter in triplicate.
# (§3) As ATM is essential for cell checkpoint, the cell cycle profiles were studies in this experiment. The plasmid containing the cDNA of human Mettle8 SAM deletion mutant was constructed by PCR based mutagenesis method to delete the specific nucleotide sequence in the SAM domain as shown in FIG. 7A. After the plasmid was transfected into HCT116 wildtype cells, stable colonies of cell containing the plasmid were selected, which were called Mettl8 ΔSAM cells. The Mettle8 ΔSAM variant cDNA was also transduced into human skin fibroblast as shown in FIG. 7N by a lentivirus based method. These HCT116 stable cells were examined in cell cycle analysis (FIG. 9A) and soft agar colony assay (FIG. 9B).
# [14] = system: HCT116 stable cells; assay: Cell cycle profiling by FACS of HCT116 stable cells; type: cell-based, human; settings: un-stressed conditions, versus empty vector and wild-type Mettl8
# Source text: as §3
# In addition, HCT116 stable cells with Mettl8 variant were fixed with 70% ethanol and stained with pI followed by cell cycle profiling on FACS and data were analysed with FlowJo software.
# [15] = system: HCT116 cells; assay: Soft agar colony assay; type: cell-based, human; settings: HCT116 stable cells, 500 cells/well, 2 weeks, compared to empty vector
# Method: as §2
molecule,measurement,setting,value
O=c1cc(-c2cccc3c2Sc2ccccc2S3)oc(N2CCOCC2)c1 [Ku55933],prevention of Mettl8 phosphorylation by IR,"[1]; 1 μM Ku55933 pretreatment 1 hour, 10 Gy, harvested 1 h later, doses 0.1, 1, 5 μM tested",sufficient to prevent the phosphorylation of Mettl8
same,irradiation-induced phosphorylation at the pS/TQ motif of Flag-Mettl8,"[1]; HCT116 Flag-Mettl8 cells pretreated 1 hour with inhibitor (AZD7762 0.5 μM), then 10 Gy",reduced the phosphorylation
same,"hyper activation of ATM, KAP1, Chk2, p53 by irradiation",[2],either reverted or eliminated the hyper activation
"CC1CC(=O)c2c(ccc3c2C(=O)c2cccc(O)c2C3=O)C1 (stereo not shown) [STA-21, 8-hydroxy-3-methyl-3,4-dihydrotetraphene-1,7,12(2H)-trione]",Mettl8 protein levels (Western blot),[3],reduced
same,Mettl8 mRNA expression (real-time PCR),[4],inhibited
same,Mettl8 mRNA (real-time PCR),[4],downregulated
"O=[N+]([O-])c1ccc2c(c1)S(=O)(=O)C=C2 [STATTIC, 6-Nitrobenzo[b]thiophene 1,1-dioxide]",Mettl8 protein levels (Western blot),[3],reduced
same,Mettl8 mRNA expression (real-time PCR),[4],inhibited
same,Mettl8 mRNA (real-time PCR),[4],downregulated
CC[C@@]1(O)C(=O)OCc2c1cc1n(c2=O)Cc2cc3ccccc3nc2-1 [camptothecin],ATM activation,[5],caused hyperactivation of ATM
N.N.[Cl][Pt][Cl] [cisplatin],Mettl8 expression at transcriptional level,[6],downregulated at transcriptional level
same,sensitivity to cisplatin treatment (colony survival assay),[7],more sensitive
same,sensitivity to cisplatin treatment (MTS assay),[8],more sensitive
same,Mettl8 protein level,[9],dramatically reduced
CO[C@@]12[C@H](COC(N)=O)C3=C(C(=O)C(C)=C(N)C3=O)N1C[C@@H]1N[C@@H]12 [mitomycin C],Mettl8 expression at transcriptional level,[6],downregulated at transcriptional level
"Mettl8 shRNA2: shRNA sequence GCGAGAGAATCATCATGGGAT, SEQ ID No: 3",colony formation,[10],significantly reduced the colony formation
"STAT3 shRNA: shRNA sequence TTTGTGCTTAGGATGGCCC, SEQ ID No: 7; full sequence SEQ ID No: 8 (GATCCCCGGGCCATCCTAAGCACAAATTCAAGAGATTTGTGCTTAGGATGGCCCTTTTTA)",Mettl8 mRNA,[11],downregulation
same,Mettl8 protein,[11],downregulation
"shRNA: hairpin shRNA against Mettl8 cloned into pLKO1, SEQ ID NO: 15; hairpin matches M8 shRNA1 GTTGAGGGAATTTCCTGAAAT (CCGGGTTGAGGGAATTTCCTGAAATCTCGAGATTTCAGGAAATTCCCTCAACTTTTTTG)","Mettl8 expression (knock down efficiency, Western blotting)",[12],can knock down the expression of Mettl8
B1,binding of SAM,[13],lost the ability to bind the SAM donor molecule
same,cell cycle profile,[14],more accumulation of G2/M populations
same,soft agar colony numbers,[15],much reduced colony numbers
